SMILES strings stand for the structures. pKd: −log10 of the molar value.

Data on one molecule can be found in PMC10989772 (mLife, 2022).

In one assay the target is Larg1 (Lpg0081) (Legionella pneumophila, UniProt Q5ZZD0).
Assay [1] has as its target Larg1 (lpg0081, 16–428aa) (Legionella pneumophila, UniProt Q5ZZD0).

Sequence of Larg1 (Lpg0081) (Q5ZZD0 1-441 limits assumed): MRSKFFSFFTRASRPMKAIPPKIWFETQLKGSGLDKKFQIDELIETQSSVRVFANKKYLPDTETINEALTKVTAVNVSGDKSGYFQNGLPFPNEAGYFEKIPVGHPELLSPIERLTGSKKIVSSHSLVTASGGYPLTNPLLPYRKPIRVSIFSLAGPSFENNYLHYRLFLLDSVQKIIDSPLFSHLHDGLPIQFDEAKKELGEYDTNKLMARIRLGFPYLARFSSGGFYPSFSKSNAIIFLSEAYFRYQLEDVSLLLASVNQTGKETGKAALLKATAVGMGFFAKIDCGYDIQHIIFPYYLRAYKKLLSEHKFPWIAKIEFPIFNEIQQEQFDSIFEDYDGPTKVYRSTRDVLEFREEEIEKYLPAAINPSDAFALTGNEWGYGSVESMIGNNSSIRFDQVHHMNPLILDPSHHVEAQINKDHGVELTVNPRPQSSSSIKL
Sequence of Larg1 (lpg0081, 16–428aa) (Q5ZZD0 16-428 limits assumed): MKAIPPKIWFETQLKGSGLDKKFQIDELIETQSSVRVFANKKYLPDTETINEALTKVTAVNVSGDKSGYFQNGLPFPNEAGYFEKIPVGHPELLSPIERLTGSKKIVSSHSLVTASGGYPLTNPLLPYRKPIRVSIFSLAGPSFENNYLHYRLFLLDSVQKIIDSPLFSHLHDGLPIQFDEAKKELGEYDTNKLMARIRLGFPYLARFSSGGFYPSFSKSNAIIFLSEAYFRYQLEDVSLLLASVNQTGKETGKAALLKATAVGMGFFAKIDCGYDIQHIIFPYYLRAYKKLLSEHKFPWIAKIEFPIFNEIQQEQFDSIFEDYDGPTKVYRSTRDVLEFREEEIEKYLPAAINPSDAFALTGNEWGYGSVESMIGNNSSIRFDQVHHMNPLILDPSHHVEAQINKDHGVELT

With `Nc1ncnc2c1ncn2[C@@H]1O[C@H](COP(=O)(O)OP(=O)(O)OC[C@H]2OC(O)[C@H](O)[C@@H]2O)[C@@H](O)[C@H]1O` (some centres unmarked) [ADPR], the pKd at Larg1 (Lpg0081) was 5.41. Besides, the “X-ray crystal structure, 2.32 Å” value in assay [1] is reported as “to determine the structure of the Larg1‐ADPR complex (PDB:7W3S)”.
